Read-outs that look alike come from different tables or passages of the source.
Experiments:
human H3 receptor = molecular target: T1, human H3 receptor (Homo sapiens, UniProt Q9Y5N1); assay: Human H3 radioligand binding ([3H]-N-alpha-methylhistamine, CHO cell membranes, SPA); conditions: binding constant as letter class
T1 construct: expressed in transfected cells
Method in brief: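 Scintillation proximity format: bead-proximal [3H]-N-alpha-methylhistamine (approximately 1 nM final) bound to human H3 receptor in CHO membranes was counted after 4 h at room temperature, light-protected. Buffer was pH 7.4 Tris/MgCl2/BSA; test compounds spanned 0.01 nM-30 μM; 10 μM clobenpropit set non-specific binding.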

[1] = molecular target: T2, rat histamine H3 receptor (Rattus norvegicus, UniProt Q9QYN8); assay: Rat H3 radioligand binding ([3H]-N-alpha-methylhistamine, CHO-A3 cell membranes, SPA); conditions: binding constant as letter class
T2 construct: encoding the entire 445-amino-acid rat histamine H3 receptor; expressed in transfected cells
T2 sequence (Q9QYN8 whole entry): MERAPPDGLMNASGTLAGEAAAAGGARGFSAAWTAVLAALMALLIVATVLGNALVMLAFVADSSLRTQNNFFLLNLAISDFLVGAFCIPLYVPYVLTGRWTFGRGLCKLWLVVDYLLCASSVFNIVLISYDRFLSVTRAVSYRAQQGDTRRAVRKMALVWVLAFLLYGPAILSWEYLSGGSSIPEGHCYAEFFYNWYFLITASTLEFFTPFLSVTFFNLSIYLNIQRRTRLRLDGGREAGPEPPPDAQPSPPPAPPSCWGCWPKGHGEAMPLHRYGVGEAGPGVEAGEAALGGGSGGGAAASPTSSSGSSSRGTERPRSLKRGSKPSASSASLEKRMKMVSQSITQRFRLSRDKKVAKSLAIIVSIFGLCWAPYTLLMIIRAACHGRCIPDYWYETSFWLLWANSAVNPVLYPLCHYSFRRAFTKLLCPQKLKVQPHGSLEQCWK
Method in brief: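 Scintillation proximity displacement of about 1 nM [3H]-N-alpha-methylhistamine, test compound 0.01 nM-30 μM, 4 h, room temperature, in the dark. Receptor source: rat H3 stably transfected into CHO-A3 cells, 10 μg membrane protein, Tris-HCl pH 7.4/MgCl2/BSA buffer. Nonspecific binding defined by 10 μM clobenpropit.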

T1 sequence (Q9Y5N1 whole entry): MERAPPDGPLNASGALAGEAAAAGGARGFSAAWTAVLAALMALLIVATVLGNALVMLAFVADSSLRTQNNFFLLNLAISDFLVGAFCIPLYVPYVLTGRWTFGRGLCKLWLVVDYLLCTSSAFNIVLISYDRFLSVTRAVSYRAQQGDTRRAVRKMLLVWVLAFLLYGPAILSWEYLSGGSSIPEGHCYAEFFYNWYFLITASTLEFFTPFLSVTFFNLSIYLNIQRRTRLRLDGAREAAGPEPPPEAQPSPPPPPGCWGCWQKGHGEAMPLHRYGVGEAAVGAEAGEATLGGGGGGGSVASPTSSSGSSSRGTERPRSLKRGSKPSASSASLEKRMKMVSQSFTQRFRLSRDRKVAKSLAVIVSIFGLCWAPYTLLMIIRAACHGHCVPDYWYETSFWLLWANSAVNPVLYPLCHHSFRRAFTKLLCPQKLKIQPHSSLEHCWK

SMILES | Ki (human H3 receptor; Table B) [µM] | Ki ([1]; Table B, read-out: rat H3 Ki) [µM] | melting point | Ki (human H3 receptor; Table A) [µM] | Ki ([1]; Table A, read-out: Rat H3 Ki) [µM]
Cc1n[nH]c(=O)cc1-c1ccc(OC2CCNCC2)cc1.Cl [Example 102, 6-methyl-5-[4-(piperidin-4-yloxy)-phenyl]-2H-pyridazin-3-one] | > 1 | > 1 | 225 to 227 °C |  | 
CC1(C)CC(c2ccc(OC3CCN(C4CCC4)CC3)c(F)c2)=NNC1=O [Example 153, 6-[4-(1-Cyclobutyl-piperidin-4-yloxy)-3-fluoro-phenyl]-4,4-dimethyl-4,5-dihydro-2H-pyridazin-3-one] | 0.0001 to 0.1 | 0.0001 to 0.1 | 147 to 149 °C |  | 
C[C@@H]1CCCN1CCCOc1c(Br)cc(-c2cn[nH]c(=O)c2)cc1Br [Example 229] | 0.0001 to 0.1 | 0.501 to 1 | 175 to 180 °C |  | 
C[C@@H]1CCCN1CCCOc1c(F)cc(C2=NNC(=O)CC2)cc1F [Example 186, 6-{3,5-Difluoro-4-[3-((R)-2-methyl-pyrrolidin-1-yl)-propoxy]-phenyl}-4,5-dihydro-2H-pyridazin-3-one] | 0.0001 to 0.1 | 0.0001 to 0.1 | 102 to 104 °C |  | 
CC1(C)CC(c2ccc(OC3CCN(C4CCC4)CC3)cc2)=NNC1=O [Example 152, 6-[4-(1-Cyclobutyl-piperidin-4-yloxy)-phenyl]-4,4-dimethyl-4,5-dihydro-2H-pyridazin-3-one] | 0.0001 to 0.1 | 0.0001 to 0.1 | 157 to 158 °C |  | 
O=C1CC(c2ccccn2)C(c2ccc(OC3CCN(C4CCC4)CC3)cc2)=NN1 (stereo not drawn) [Example 114, 6-[4-(1-Cyclobutyl-piperidin-4-yloxy)-phenyl]-5-pyridin-2-yl-4,5-dihydro-2H-pyridazin-3-one] | 0.0001 to 0.1 | 0.0001 to 0.1 | 199 °C (dec.) |  | 
O=c1ccc(-c2ccc(OC3CCN(C4CCC4)CC3)cc2F)n[nH]1 [Example 221, 6-[4-(1-Cyclobutyl-piperidin-4-yloxy)-2-fluoro-phenyl]-2H-pyridazin-3-one] | 0.0001 to 0.1 | 0.0001 to 0.1 | > 300 °C |  | 
O=C1CCC(c2ccc(OC3CCNCC3)cc2)=NN1C1CCC1 [Example 165, 2-Cyclobutyl-6-[4-(piperidin-4-yloxy)-phenyl]-4,5-dihydro-2H-pyridazin-3-one] | > 1 | > 1 | 168 to 170 °C |  | 
O=C1CCC(c2ccc(O[C@@H]3CCN(C4CCCCC4)C3)cc2)=NN1 [Example 159, 6-[4-((R)-1-Cyclohexyl-pyrrolidin-3-yloxy)-phenyl]-4,5-dihydro-2H-pyridazin-3-one] | > 1 | > 1 | 184 to 186 °C |  | 
O=C1CCC(c2ccc(OC3CCN(C4CCCC4)CC3)cc2)=NN1C1CCC1 [Example 164, 2-Cyclobutyl-6-[4-(1-cyclopentyl-piperidin-4-yloxy)-phenyl]-4,5-dihydro-2H-pyridazin-3-one] | 0.0001 to 0.1 | 0.0001 to 0.1 | 100 to 104 °C |  | 
O=C1NN=C(c2ccc(OC3CCN(C4CCC4)CC3)cc2)C2CCCC12 (stereo not drawn) [Example 174, 4-[4-(1-Cyclobutyl-piperidin-4-yloxy)-phenyl)-2,4a,5,6,7,7a-hexahydro-cyclopenta[d]pyridazin-1-one] | 0.0001 to 0.1 | 0.0001 to 0.1 | > 255 °C (dec.) |  | 
O=C1CCC(c2ccc(OC3CCN(C4CCC4)CC3)c(F)c2)=NN1 [Example 151, 6-[4-(1-Cyclobutyl-piperidin-4-yloxy)-3-fluoro-phenyl]-4,5-dihydro-2H-pyridazin-3-one] | 0.0001 to 0.1 | 0.0001 to 0.1 | 195 to 197 °C |  | 
C[C@@H]1CCCN1CCCOc1ccc(-c2ccc(=O)[nH]n2)cn1 [Example 146, 6-{6-[3-((R)-2-Methyl-pyrrolidin-1-yl)-propoxy]-pyridin-3-yl}-2H-pyridazin-3-one] | 0.0001 to 0.1 | 0.0001 to 0.1 | 178 to 181 °C |  | 
O=C1CCC(c2ccc(OC3CCN(C4CCC4)CC3)cc2)=NN1C1CCC1 [Example 163, 2-Cyclobutyl-6-[4-(1-cyclobutyl-piperidin-4-yloxy)-phenyl]-4,5-dihydro-2H-pyridazin-3-one] | 0.0001 to 0.1 | 0.0001 to 0.1 | 120 to 123 °C |  | 

Now from value to compound:

Ki (human H3 receptor; Table B) [µM] | Ki ([1]; Table B, read-out: rat H3 Ki) [µM] | melting point | Ki (human H3 receptor; Table A) [µM] | Ki ([1]; Table A, read-out: Rat H3 Ki) [µM] | SMILES
0.0001 to 0.1 | 0.0001 to 0.1 | 121 to 123 °C |  |  | C[C@@H]1CCCN1CCCOc1ccc(-c2ccc(=O)n(CC(F)(F)F)n2)cc1 [Example 170, 6-{4-[3-((R)-2-Methyl-pyrrolidin-1-yl)-propoxy]-phenyl}-2-(2,2,2-trifluoro-ethyl)-2H-pyridazin-3-one]
0.0001 to 0.1 | 0.101 to 0.5 | 155 to 158 °C |  |  | O=c1ccc(-c2ccc(OCCCN3CCCCC3)nc2)n[nH]1 [Example 147, 6-[6-(3-Piperidin-1-yl-propoxy)-pyridin-3-yl]-2H-pyridazin-3-one]
0.0001 to 0.1 | 0.0001 to 0.1 | 169 to 170 °C |  |  | Cc1onc2c(=O)[nH]nc(-c3ccc(OCCCN4CCC[C@H]4C)cc3)c12 [Example 208, 3-Methyl-4-{4-[3-((R)-2-methyl-pyrrolidin-1-yl)-propoxy]-phenyl}-6H-isoxazolo[3,4-d]pyridazin-7-one]
0.0001 to 0.1 | 0.0001 to 0.1 | 87 to 90 °C |  |  | C[C@@H]1CCCN1CCCOc1ccc(-n2nc(-c3cccnc3)ccc2=O)cc1 [Example 204, 2-{4-[3-((R)-2-Methyl-pyrrolidin-1-yl)-propoxy]-phenyl}-6-pyridin-3-yl-2H-pyridazin-3-one]
0.0001 to 0.1 | 0.101 to 0.5 | 112 to 113 °C |  |  | Cc1cc(OCCCN2CCCCC2)ccc1-c1cn[nH]c(=O)c1 [Example 233, 5-[2-Methyl-4-(3-piperidin-1-yl-propoxy)-phenyl]-2H-pyridazin-3-one]
0.0001 to 0.1 | 0.0001 to 0.1 | 128 to 130 °C |  |  | O=c1ccc(-c2ccc(OCCCN3CCCCC3)cc2)nn1CC(F)(F)F [Example 171, 6-[4-(3-Piperidin-1-yl-propoxy)-phenyl]-2-(2,2,2-trifluoro-ethyl)-2H-pyridazin-3-one]
0.101 to 0.5 | 0.101 to 0.5 | 167 °C |  |  | O=c1ccc(-c2ccc(OC[C@H](O)CN3CCCCC3)cc2)n[nH]1 [Example 259, 6-[4-((R)-2-Hydroxy-3-piperidin-1-yl-propoxy)-phenyl]-2H-pyridazin-3-one]
 |  | 164 to 166 °C | > 1 | > 1 | Cn1nc(-c2ccc(OCC3CCN(C(=O)OC(C)(C)C)CC3)cc2)ccc1=O [Example 65, 4-[4-(1-Methyl-6-oxo-1,6-dihydro-pyridazin-3-yl)-phenoxymethyl]-piperidine-1-carboxylic acid tert-butyl ester]
0.0001 to 0.1 | 0.0001 to 0.1 | 272 to 275 °C |  |  | CCc1cc(=O)[nH]nc1-c1ccc(OCCCN2CCC[C@H]2C)cc1 [Example 211, 5-Ethyl-6-{4-[3-((R)-2-methyl-pyrrolidin-1-yl)-propoxy]-phenyl}-2H-pyridazin-3-one]
0.0001 to 0.1 | 0.0001 to 0.1 | 253 to 255 °C |  |  | Cc1cc(=O)[nH]nc1-c1ccc(OCCCN2CCC[C@H]2C)cc1 [Example 210, 5-Methyl-6-{4-[3-((R)-2-methyl-pyrrolidin-1-yl)-propoxy]-phenyl}-2H-pyridazin-3-one]
0.0001 to 0.1 | 0.0001 to 0.1 | 86 to 89 °C |  |  | C[C@@H]1CCCN1CCCOc1ccc(-n2nc(-c3ccccc3)ccc2=O)cc1 [Example 200, 2-{4-[3-((R)-2-Methyl-pyrrolidin-1-yl)-propoxy]-phenyl}-6-phenyl-2H-pyridazin-3-one]
0.0001 to 0.1 | 0.0001 to 0.1 | 218 to 219 °C |  |  | C[C@@H]1CCCN1CCCOc1ccc(C2=NNC(=O)C3CCCC23)cc1 (stereo partly drawn) [Example 175, 4-{4-[3-((R)-2-Methyl-pyrrolidin-1-yl)-propoxy]-phenyl}-2,4a,5,6,7,7a-hexahydro-cyclopenta[d]pyridazin-1-one]
0.0001 to 0.1 | 0.0001 to 0.1 | 114 °C (dec.) |  |  | Cc1cc(OCCCN2CCCCC2)ccc1-c1ccc(=O)[nH]n1 [Example 137, 6-[2-Methyl-4-(3-piperidin-1-yl-propoxy)-phenyl]-2H-pyridazin-3-one]
0.0001 to 0.1 | 0.0001 to 0.1 | 225 to 227 °C |  |  | O=C1CCC(c2ccc(OC3CCN(C4CCCC4)CC3)cc2)=NN1CC(F)(F)F [Example 167, 6-[4-(1-Cyclopentyl-piperidin-4-yloxy)-phenyl]-2-(2,2,2-trifluoro-ethyl)-4,5-dihydro-2H-pyridazin-3-one]
0.0001 to 0.1 | 0.0001 to 0.1 | 146 to 147 °C |  |  | O=C1CCC(c2ccc(OC3CCN(C4CCC4)CC3)cc2)=NN1CC(F)(F)F [Example 166, 6-[4-(1-Cyclobutyl-piperidin-4-yloxy)-phenyl]-2-(2,2,2-trifluoro-ethyl)-4,5-dihydro-2H-pyridazin-3-one]
0.0001 to 0.1 | 0.101 to 0.5 | 164 to 166 °C |  |  | O=C1CCC(c2ccc(OCCCN3CCCCC3)c(F)c2)=NN1 [Example 181, 6-[3-Fluoro-4-(3-piperidin-1-yl-propoxy)-phenyl]-4,5-dihydro-2H-pyridazin-3-one]
0.0001 to 0.1 | 0.0001 to 0.1 | 175 to 178 °C |  |  | C[C@@H]1CCCN1CCCOc1c(F)cc(-c2ccc(=O)n(C)n2)cc1F [Example 84, 6-{3,5-Difluoro-4-[3-((R)-2-methyl-pyrrolidin-1-yl)-propoxy]-phenyl}-2-methyl-2H-pyridazin-3-one]

From US8586588B2, “Aryl pyridazinone derivatives and their use as H3 receptor ligands” (Cephalon, Inc., priority 2006, dated 2013)
